The record followed here is patent US11549115B2, “Compositions and methods for regulated gene expression” (YALE UNIVERSITY, priority 2017, dated 2023).

SMILES strings stand for the structures.

The series can be described thus: Sialic acid in murine fecal samples (LC-MS/MS). The note with it: Swiss Webster, mouse, faeces; oral gavage, gnotobiotic mice monocolonized with B. thetaiotaomicron BT0455. Format: in vivo. Here is the method:
Groups of 6 germ-free Swiss Webster mice were orally gavaged with 1×10^9 CFU of the desired B. thetaiotaomicron strain. Fecal samples (˜100-200 mg) were collected daily for 12 days. aTC (100 μg/mL) was administered in drinking water for 12 hours after fecal collection on day 1. Fecal samples were homogenized in 1 mL of 1× tris-buffered saline (TBS) with a single 5 mm stainless steel bead using a bead beater (BioSpec Products) at 26° C. for 1 minute on the high setting, followed by vortexing at top speed for 8 minutes. Samples were then centrifuged at 500×g for 1 minute to pellet fibrous and insoluble matter. […]
For sialic acid measurements, 5 μL of internal standard solution (50 μM 1,2,3-^13C3 sialic acid in H2O) were added to each sample (20 μL) and proteins were precipitated through addition of 100 μL organic solvents at −20° C. […] The MassHunter Quantitative Analysis Software (Agilent, version 7.0) was used for peak integration with the most abundant ion fragment as quantifier and the others as qualifiers of the peak. Quantification was based on calibration curves using commercially available sialic acid and the signal intensity of the internal standard spiked into each sample.

In general, half-life refers to the time needed for the level to fall by half in the phase considered. `CC(=O)N[C@H]1[C@H]([C@H](O)[C@H](O)CO)OC(O)(C(=O)O)C[C@@H]1O` (stereo partly shown) [sialic acid, N-acetylneuraminic acid] showed a half-life of approximately 9 h.
